US20240139210A1, “TREATMENT OF NF-KB-MEDIATED DISEASE” (ReveraGen BioPharma, Inc., priority 2020, published 2024)

Legend:
Assay type in all cases: in vivo, human
[1] = VBP15-002 multiple ascending dose trial, PK and safety
Procedure: Vamorolone clinical studies have been conducted in adult male volunteers and boys with DMD, a disorder in which skeletal muscle is in a chronic inflammatory state. Two consecutive open-label dose-ranging studies in 48 DMD patients aged 4 to <7 years (corticosteroid-naïve) were conducted (Phase IIa, VBP15-002; Phase IIa, VBP15-003). Doses were tested over a 24-fold dose range (0.25, 0.75, 2.0, and 6.0 mg/kg/day), with 12 participants per group. The first multiple ascending dose (MAD) cohort trial-tested pharmacokinetics (PK) and safety for 2 weeks of drug dosing followed by a 2-week washout (VBP15-002). […] All DMD participants completed the MAD study and then continued on the same dose for a 24-week dose-finding (efficacy and safety) extension study (VBP15-003).
VBP15-002 (Phase IIa; two weeks on the drug, two weeks off drug) enrolled 48 corticosteroid-naïve participants with DMD, and all 48 participants completed the study and enrolled into VBP15-003 (Phase IIa extension; 24-week treatment). Forty-six of 48 participants completed the VBP15-003 study (2 participants withdrew from VBP15-003 for reasons unrelated to the study drug). In addition, all participants (46/46) opted to enroll in the 24-month long-term extension study, VBP15-LTE.

participants with DMD = test: CINRG DNHS corticosteroid-treated external comparator; conditions: vamorolone versus corticosteroid-treated DNHS, 18 months
Excerpt: The consecutive vamorolone trials (VBP15-002, VBP15-003, VBP15-LTE) were open-label with no placebo comparator. Corticosteroid-naïve and corticosteroid-treated DMD participant comparators were group-matched participants from the CINRG DNHS (NCT00468832). The CINRG DNHS was an observational, prospective case-control study of 551 participants (440 with DMD, 111 healthy peers). For group matching between vamorolone-treated participants and CINRG DNHS participants, prespecified criteria were defined for matching within the interim statistical analysis plan (iSAP). Age-matched CINRG DNHS participants included those continuously corticosteroid-naïve over an 18-month period (n=19) or continuously corticosteroid-treated over an 18-month period (n=68). For the 68 corticosteroid-treated participants, as this was an observational cohort, corticosteroid doses and regimens varied based on clinician discretion. Although all 68 participants were treated for 18 months continuously, the age at initiation of corticosteroids varied. Thus, the total duration of corticosteroid treatment was longer than 18 months for most participants. […]
The incidences of physician-reported AEs typically for corticosteroid treatment were determined for participants that had been treated with vamorolone 6.0 mg/kg/day (for any duration), taken from the March 2019 Data Safety Update Report (DSUR) (pharmacovigilance report). […]

boys with DMD = test: CINRG 12-month prednisone clinical trial, external comparator; conditions: vamorolone 18-month treatment versus prednisone trial 12-month treatment
Procedure: As with the CINRG DNHS comparators, group-matching criteria were prespecified in the iSAP, and 2 independent statisticians carried out the participant matching. […] There was no corresponding 12-month assessment in vamorolone-treated participants. (Assessments of vamorolone-treated trial participants were 0, 3, 6, and 18 months).
Participants in the corticosteroid-treated CINRG DNHS group were treated for at least 18 months, but the total duration, dose, and regimens varied.

## C[C@@H]1C[C@H]2[C@@H]3CCC4=CC(=O)C=C[C@]4(C)C3=CC[C@]2(C)[C@@]1(O)C(=O)CO [Vamorolone, 17α,21-dihydroxy-16α-methylpregna-1,4,9(11)-triene-3,20-dione]
[1]; 0.25-6.0 mg/kg/day, 2 weeks dosing
  dose-limiting toxicities: no dose-limiting toxicities
[1]; day 1 vs day 14
  drug accumulation: no drug accumulation
[1]; male, human, in vivo, oral, DMD patients aged 4 to <7 years, 0.25-6.0 mg/kg/day, 2 weeks dosing
  half-life: ~2 h
Participants with DMD
  Mean height percentile for age, LS mean difference (SE), ANCOVA: 15.86 percentile
Boys with DMD
  Mean height percentile for age, LS mean difference (SE), ANCOVA: 10.37 percentile
